For five molecules, residual activity and inhibition results are on record in ChEMBL document CHEMBL5705888, “Substrate specificity and inhibitors of LRRK2, a protein kinase mutated in Parkinson's disease” (Biochem J, 2009).

Experiment [1] concerns the target T1, MAP kinase-activated protein kinase 5 (Homo sapiens) (UniProt Q8IW41).
T1 sequence (whole entry): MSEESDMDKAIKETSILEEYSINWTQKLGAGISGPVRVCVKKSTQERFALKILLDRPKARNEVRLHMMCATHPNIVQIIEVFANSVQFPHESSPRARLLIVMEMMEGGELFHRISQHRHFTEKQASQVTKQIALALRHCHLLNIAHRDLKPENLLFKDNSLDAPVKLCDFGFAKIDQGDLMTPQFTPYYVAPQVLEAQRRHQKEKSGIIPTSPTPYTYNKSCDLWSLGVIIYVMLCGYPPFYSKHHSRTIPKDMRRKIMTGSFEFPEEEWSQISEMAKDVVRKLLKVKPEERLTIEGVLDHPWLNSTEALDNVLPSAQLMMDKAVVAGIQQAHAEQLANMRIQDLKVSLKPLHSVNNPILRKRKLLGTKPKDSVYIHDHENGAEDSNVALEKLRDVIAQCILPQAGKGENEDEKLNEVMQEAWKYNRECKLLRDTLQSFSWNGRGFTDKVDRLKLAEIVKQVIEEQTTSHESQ
Kind of experiment: Inhibition of PRAK (unknown origin) at 1 uM incubated for 30 mins in presence of [gamma-33P]ATP by multidrop micro reagent based assay relative to control; values are per cent of control.

Experiment [2] has as its target Insulin receptor-related protein (Homo sapiens) (UniProt P14616). In words: Inhibition of IRR (unknown origin) at 1 uM incubated for 30 mins in presence of [gamma-33P]ATP by multidrop micro reagent based assay relative to control.
In experiment [3] the target is Serine/threonine-protein kinase Nek6 (Homo sapiens) (UniProt Q9HC98). In words: Residual activity of NEK6 (unknown origin) at 10 uM incubated for 30 mins in presence of [gamma-33P]ATP by multidrop micro reagent based assay relative to control.
Experiment [4] concerns the target Insulin receptor-related protein (Homo sapiens) (UniProt P14616). In words: Inhibition of IRR (unknown origin) at 10 uM incubated for 30 mins in presence of [gamma-33P]ATP by multidrop micro reagent based assay relative to control.
In experiment [5] the target is Mitogen-activated protein kinase 14 (Homo sapiens) (UniProt Q16539). Kind of experiment: Inhibition of p38alpha MAPK (unknown origin) at 10 uM incubated for 30 mins in presence of [gamma-33P]ATP by multidrop micro reagent based assay relative to control; values are per cent of control.
The target in experiment [6] is T2, Serine/threonine-protein kinase 3 (Homo sapiens) (UniProt Q13188).
T2 sequence (whole entry): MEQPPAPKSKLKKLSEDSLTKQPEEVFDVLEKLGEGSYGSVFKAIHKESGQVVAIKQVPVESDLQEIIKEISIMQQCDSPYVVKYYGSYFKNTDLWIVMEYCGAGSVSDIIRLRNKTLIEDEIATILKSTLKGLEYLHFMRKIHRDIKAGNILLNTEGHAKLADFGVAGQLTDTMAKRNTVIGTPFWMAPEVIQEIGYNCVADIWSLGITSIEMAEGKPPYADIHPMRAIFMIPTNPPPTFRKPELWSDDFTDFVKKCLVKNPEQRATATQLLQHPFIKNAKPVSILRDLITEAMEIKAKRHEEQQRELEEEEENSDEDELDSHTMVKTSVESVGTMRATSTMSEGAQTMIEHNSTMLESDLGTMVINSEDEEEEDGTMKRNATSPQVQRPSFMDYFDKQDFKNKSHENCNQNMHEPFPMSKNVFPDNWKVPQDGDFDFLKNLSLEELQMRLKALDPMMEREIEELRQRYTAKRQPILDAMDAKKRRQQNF
In words: Inhibition of MST2 (unknown origin) at 10 uM incubated for 30 mins in presence of [gamma-33P]ATP by multidrop micro reagent based assay relative to control; values are per cent of control.

Experiment [7] deals with T3, Serine/threonine-protein kinase TBK1 (Homo sapiens) (UniProt Q9UHD2).
T3 sequence (whole entry): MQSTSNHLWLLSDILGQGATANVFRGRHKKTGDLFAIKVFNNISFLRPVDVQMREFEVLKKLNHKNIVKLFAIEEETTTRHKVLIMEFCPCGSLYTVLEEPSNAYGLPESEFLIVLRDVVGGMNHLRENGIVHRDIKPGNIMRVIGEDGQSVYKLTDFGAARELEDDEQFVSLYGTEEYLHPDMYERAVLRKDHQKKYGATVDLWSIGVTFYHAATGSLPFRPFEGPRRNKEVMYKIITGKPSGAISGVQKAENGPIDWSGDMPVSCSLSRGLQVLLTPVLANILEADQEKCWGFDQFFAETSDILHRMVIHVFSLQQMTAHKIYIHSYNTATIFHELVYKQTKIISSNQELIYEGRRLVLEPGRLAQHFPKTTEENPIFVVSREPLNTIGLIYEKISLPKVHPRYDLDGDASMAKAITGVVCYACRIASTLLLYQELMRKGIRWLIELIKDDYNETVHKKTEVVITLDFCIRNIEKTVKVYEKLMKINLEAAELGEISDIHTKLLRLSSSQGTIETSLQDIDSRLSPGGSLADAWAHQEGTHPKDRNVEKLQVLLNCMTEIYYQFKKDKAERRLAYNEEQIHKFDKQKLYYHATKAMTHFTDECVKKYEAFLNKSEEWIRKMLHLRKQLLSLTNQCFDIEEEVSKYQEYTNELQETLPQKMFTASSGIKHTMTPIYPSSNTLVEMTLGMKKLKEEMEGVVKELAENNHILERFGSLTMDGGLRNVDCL
Kind of experiment: Inhibition of TBK1 (unknown origin) at 10 uM incubated for 30 mins in presence of [gamma-33P]ATP by multidrop micro reagent based assay relative to control; values are per cent of control.

Experiment [8] addresses Tyrosine-protein kinase Yes (Homo sapiens) (UniProt P07947). Kind of experiment: Inhibition of YES1 (unknown origin) at 10 uM incubated for 30 mins in presence of [gamma-33P]ATP by multidrop micro reagent based assay relative to control; values are per cent of control.
Experiment [9] deals with Dual specificity mitogen-activated protein kinase kinase 1 (Homo sapiens) (UniProt Q02750). In words: Inhibition of MKK1 (unknown origin) at 10 uM incubated for 30 mins in presence of [gamma-33P]ATP by multidrop micro reagent based assay relative to control.
Experiment [10] addresses Calcium/calmodulin-dependent protein kinase type 1 (Homo sapiens) (UniProt Q14012). In words: Inhibition of CaMK1 (unknown origin) at 10 uM incubated for 30 mins in presence of [gamma-33P]ATP by multidrop micro reagent based assay relative to control; values are per cent of control.
In experiment [11] the target is Serine/threonine-protein kinase pim-1 (Homo sapiens) (UniProt P11309). Kind of experiment: Inhibition of PIM1 (unknown origin) at 10 uM incubated for 30 mins in presence of [gamma-33P]ATP by multidrop micro reagent based assay relative to control; values are per cent of control.
Sequence of Serine/threonine-protein kinase pim-1 (Homo sapiens) (P11309 whole entry, looked up): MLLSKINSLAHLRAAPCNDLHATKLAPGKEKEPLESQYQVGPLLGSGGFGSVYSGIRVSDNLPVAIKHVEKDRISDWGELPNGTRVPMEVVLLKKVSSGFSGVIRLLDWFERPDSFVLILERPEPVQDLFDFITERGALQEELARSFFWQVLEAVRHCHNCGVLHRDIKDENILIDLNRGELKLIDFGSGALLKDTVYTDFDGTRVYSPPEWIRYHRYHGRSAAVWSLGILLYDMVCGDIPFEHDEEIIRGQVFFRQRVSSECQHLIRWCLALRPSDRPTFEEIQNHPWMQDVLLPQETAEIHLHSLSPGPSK

Sequence of Insulin receptor-related protein (Homo sapiens) (P14616 27-742 limits assumed): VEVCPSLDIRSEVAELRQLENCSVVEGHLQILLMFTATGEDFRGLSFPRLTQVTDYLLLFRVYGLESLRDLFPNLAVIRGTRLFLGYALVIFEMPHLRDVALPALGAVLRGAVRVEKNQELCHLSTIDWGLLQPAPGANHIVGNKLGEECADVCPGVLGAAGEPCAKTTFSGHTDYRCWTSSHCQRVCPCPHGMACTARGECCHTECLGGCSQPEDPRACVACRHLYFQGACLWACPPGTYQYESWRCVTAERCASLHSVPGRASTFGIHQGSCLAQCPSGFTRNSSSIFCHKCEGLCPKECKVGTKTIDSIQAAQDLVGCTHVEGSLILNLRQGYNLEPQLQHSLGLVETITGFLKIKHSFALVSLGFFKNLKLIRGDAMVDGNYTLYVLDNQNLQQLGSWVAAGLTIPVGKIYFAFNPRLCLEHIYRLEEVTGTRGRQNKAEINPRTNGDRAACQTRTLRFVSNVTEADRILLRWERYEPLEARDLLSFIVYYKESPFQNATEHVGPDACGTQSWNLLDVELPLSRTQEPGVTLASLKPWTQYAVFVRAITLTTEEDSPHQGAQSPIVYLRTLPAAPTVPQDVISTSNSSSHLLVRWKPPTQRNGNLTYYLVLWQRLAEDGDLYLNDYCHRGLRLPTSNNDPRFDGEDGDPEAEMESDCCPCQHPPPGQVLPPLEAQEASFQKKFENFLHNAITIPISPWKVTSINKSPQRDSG
Sequence of Insulin receptor-related protein (Homo sapiens) (P14616 747-1297 limits assumed): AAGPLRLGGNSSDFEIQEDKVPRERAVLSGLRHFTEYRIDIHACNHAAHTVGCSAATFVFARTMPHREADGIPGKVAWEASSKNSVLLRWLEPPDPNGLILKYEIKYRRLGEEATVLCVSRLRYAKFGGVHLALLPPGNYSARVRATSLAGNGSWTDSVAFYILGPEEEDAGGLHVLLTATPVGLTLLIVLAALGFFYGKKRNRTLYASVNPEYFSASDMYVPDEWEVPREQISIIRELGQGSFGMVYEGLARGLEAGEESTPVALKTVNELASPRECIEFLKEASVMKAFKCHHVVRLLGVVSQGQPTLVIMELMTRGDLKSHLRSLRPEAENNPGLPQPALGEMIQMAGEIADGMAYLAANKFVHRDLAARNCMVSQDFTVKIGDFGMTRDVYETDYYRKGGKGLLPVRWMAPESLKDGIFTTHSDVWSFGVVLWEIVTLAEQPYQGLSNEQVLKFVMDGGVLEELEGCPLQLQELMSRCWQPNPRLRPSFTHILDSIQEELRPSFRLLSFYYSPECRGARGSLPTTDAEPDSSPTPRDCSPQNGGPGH
Sequence of Dual specificity mitogen-activated protein kinase kinase 1 (Homo sapiens) (Q02750 whole entry): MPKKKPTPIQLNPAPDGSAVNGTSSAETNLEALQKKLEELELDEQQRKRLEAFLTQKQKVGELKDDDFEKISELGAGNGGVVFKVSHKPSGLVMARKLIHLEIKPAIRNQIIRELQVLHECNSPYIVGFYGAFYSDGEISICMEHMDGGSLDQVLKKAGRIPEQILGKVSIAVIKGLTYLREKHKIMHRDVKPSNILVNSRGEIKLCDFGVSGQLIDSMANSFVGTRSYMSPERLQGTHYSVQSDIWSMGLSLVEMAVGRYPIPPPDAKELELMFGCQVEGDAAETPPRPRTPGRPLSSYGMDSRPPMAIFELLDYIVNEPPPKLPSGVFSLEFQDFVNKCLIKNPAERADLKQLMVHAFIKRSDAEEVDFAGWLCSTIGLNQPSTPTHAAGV
Sequence of Tyrosine-protein kinase Yes (Homo sapiens) (P07947 2-543 limits assumed): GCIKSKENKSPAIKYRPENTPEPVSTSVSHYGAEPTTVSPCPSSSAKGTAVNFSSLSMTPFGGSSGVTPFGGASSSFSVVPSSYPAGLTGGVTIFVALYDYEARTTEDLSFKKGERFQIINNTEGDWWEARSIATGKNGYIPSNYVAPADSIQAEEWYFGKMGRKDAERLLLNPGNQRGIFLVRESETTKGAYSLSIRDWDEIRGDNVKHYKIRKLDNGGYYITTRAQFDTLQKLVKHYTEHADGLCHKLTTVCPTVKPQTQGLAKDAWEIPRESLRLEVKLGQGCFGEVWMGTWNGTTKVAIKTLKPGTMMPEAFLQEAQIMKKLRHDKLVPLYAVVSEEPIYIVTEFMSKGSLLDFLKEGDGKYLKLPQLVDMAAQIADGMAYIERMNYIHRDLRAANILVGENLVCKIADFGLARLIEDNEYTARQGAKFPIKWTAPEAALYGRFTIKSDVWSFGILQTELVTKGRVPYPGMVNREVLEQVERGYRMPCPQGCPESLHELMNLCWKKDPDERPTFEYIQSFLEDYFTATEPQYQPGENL
Sequence of Serine/threonine-protein kinase Nek6 (Homo sapiens) (Q9HC98 whole entry): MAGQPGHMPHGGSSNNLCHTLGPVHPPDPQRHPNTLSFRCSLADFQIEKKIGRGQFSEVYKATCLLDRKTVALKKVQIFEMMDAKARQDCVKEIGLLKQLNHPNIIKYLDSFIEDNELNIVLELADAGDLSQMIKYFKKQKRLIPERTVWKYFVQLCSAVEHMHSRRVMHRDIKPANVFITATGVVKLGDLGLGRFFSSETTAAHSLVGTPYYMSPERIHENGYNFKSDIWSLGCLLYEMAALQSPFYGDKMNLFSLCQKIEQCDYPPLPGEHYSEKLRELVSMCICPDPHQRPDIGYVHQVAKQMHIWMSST
Sequence of Calcium/calmodulin-dependent protein kinase type 1 (Homo sapiens) (Q14012 whole entry, looked up): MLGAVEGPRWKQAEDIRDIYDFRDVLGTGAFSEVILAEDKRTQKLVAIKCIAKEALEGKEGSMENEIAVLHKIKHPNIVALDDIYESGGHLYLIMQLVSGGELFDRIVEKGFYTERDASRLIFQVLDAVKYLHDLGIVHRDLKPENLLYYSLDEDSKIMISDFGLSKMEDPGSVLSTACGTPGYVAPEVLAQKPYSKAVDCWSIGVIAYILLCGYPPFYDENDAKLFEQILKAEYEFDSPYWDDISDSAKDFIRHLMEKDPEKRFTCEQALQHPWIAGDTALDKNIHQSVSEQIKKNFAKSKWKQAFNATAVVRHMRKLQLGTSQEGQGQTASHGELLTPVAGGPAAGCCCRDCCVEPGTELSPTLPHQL
Sequence of Mitogen-activated protein kinase 14 (Homo sapiens) (Q16539 whole entry): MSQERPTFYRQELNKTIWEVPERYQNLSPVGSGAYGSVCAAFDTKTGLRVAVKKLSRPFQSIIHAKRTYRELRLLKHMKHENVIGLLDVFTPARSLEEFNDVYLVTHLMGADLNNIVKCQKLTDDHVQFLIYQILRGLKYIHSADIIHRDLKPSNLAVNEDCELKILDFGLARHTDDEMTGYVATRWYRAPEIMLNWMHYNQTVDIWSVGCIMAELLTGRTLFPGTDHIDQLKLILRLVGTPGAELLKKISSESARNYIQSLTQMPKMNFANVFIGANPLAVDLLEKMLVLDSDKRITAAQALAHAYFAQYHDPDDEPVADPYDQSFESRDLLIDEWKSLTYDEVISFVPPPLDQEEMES

For the molecule `CC1=C(C(=O)Nc2cc3cn[nH]c3cc2F)C(c2ccc(C(F)(F)F)cc2)CC(=O)N1` (configuration not stated), the residual activity in experiment [1] was 92%. Further, in experiment [2], the inhibition (usually the drop in the measured response relative to a control, in per cent) is 106%.
On to `C[C@@H](N)[C@H]1CC[C@H](C(=O)Nc2ccncc2)CC1`, for which the residual activity came out at 80% in experiment [3]; 103% in [5]; 61% in experiment [6]; 69% in experiment [7]; 96% in experiment [8]; 85% in [10]. Besides, the residual activity in [11] was 94%. The inhibition in [4] turned out to be 91%; in [9] it was 71%.
Consider `O=S(=O)(c1cccc2cnccc12)N1CCCNCC1` [FASUDIL], for which the residual activity in [3] turned out to be 107%; in experiment [5], 108%; in [6], 51%; in experiment [7] it was 110%; in [8], 136%; in experiment [10], 109%. For the same molecule, in experiment [11], the residual activity worked out at 84%. The inhibition in experiment [4] stood at 86%; in [9] it was 41%.
With `CCn1c(-c2nonc2N)nc2cnc(Oc3cccc(NC(=O)c4ccc(OCCN5CCOCC5)cc4)c3)cc21` [GSK-269962A], the inhibition in experiment [2] is 61%.
Turning to `CCN(CC)CCNC(=O)c1c(C)[nH]c(/C=C2\C(=O)Nc3ccc(F)cc32)c1C`, the residual activity in experiment [1] worked out at 75%.
